Numbered stars: 1 amine (or outer) side, 2 acyl side, 3 side chain; on linkers, the order of the positions; unused ones are H or OH. Bridge positions count the residues as written; N and C are the ends. Square brackets hold non-standard residues; d marks the D form. Peptide text beside a SMILES is read from it. * marks the point of attachment. ξ: configuration not given here. Phe(4-CONH2) = NC(=O)c1ccc(C[C@H](N)C(=O)O)cc1; Phe(4-COOH) = N[C@@H](Cc1ccc(C(=O)O)cc1)C(=O)O; Bip = N[C@@H](Cc1ccc(-c2ccccc2)cc1)C(=O)O; Phe(3-Me) = Cc1cccc(C[C@H](N)C(=O)O)c1; Abu(3S-NH2) = C[C@H](N)[C@H](N)C(=O)O; βAsp = O=C(O)[C@H](CC(=O)[*:2])N[*:1]; Val(3-OH) = CC(C)(O)[C@H](N)C(=O)O; 4Pal = N[C@@H](Cc1ccncc1)C(=O)O; Cha = N[C@@H](CC1CCCCC1)C(=O)O; Cit = NC(=O)NCCC[C@H](N)C(=O)O; Thr(3ξ) = CC(O)[C@H](N)C(=O)O; 12Ado = NCCCCCCCCCCCC(=O)O; hSer = N[C@@H](CCO)C(=O)O; Carboxymethyl = O=C(O)C*; Orn = NCCC[C@H](N)C(=O)O; Aun = NCCCCCCCCCCC(=O)O; Dab = NCC[C@H](N)C(=O)O; Dap = NC[C@H](N)C(=O)O; AEEA = NCCOCCOCC(=O)O; Ac3c = NC1(C(=O)O)CC1

The results in this text go back to US20260022142A1, “MACROCYCLIC IMMUNOMODULATORS” (Bristol-Myers Squibb Company, priority 2022, published 2026).

For this experiment, the target named is T1, PD-1/PD-L1 interaction (PE-labeled human PD-L1-Ig binding to Jurkat cell line over-expressing human PD-1) (Homo sapiens, UniProt Q15116).
T1 construct: expressed in transfected cells; host or cells: Jurkat
T1 sequence (Q15116 25-288): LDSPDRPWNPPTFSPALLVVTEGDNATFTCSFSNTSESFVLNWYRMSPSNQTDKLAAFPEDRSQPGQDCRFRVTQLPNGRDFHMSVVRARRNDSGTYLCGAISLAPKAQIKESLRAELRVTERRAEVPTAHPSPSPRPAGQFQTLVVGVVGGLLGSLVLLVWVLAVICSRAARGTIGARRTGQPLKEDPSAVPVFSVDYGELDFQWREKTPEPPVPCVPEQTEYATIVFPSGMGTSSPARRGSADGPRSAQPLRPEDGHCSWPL
Description: Jurkat-PD-1 Cell Binding High-Content Screening Assay (CBA). To be noted: Jurkat cell line over-expressing human PD-1; PE-labeled PD-L1-Ig 20 nM final; read-out: Jurkat hPD1-PDL1 IC50. The class given is cell-based. Put shortly: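 Read-out is high-content imaging of cell-bound phycoerythrin-tagged PD-L1-Ig on fixed, Hoechst-counterstained Jurkat cells that over-express human PD-1. Compound exposure lasts 2 h at 37° C before the labeled ligand (20 nM final) is added for a further hour.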
One may read the IC50 as the concentration at which inhibition is half-maximal. Regarding `Cc1cccc(C[C@@H]2NC(=O)[C@H](CC(=O)O)NC(=O)[C@H](Cc3ccc(OCC(=O)O)cc3)NC(=O)[C@H](CCCNC(=N)N)NC(=O)CSC[C@@H](C(=O)N[C@@H](CCN)C(=O)NCCCCCCCCCCC(=O)O)NC(=O)[C@H](CCCNC(N)=O)NC(=O)[C@H](C(C)C)NC(=O)[C@H](CC3CCCCC3)NC(=O)[C@H](CCN)NC(=O)[C@@H](CC(C)C)NC(=O)[C@H](CCCN)NC(=O)[C@H](C(C)C)NC(=O)[C@H](Cc3ccc(-c4ccccc4)cc3)NC(=O)[C@H](C(C)C)NC2=O)c1` [Compound 3291] ({CH2CO}-RY(Carboxymethyl)D[Phe(3-Me)]V[Bip]V[Orn][dL][Dab][Cha]V[Cit]C[Dab][Aun]-OH; thioether N-14), the half-inhibitory concentration (IC50) came to 6.1 nM.
On to `CC(C)C[C@H]1NC(=O)[C@H](CCCN)NC(=O)[C@H](C(C)C)NC(=O)[C@H](Cc2ccc(-c3ccccc3)cc2)NC(=O)[C@H](C(C)C)NC(=O)[C@H](Cc2c[nH]c3ccccc23)NC(=O)[C@H](CC(=O)O)NC(=O)[C@H](Cc2ccc(OCC(=O)O)cc2)NC(=O)[C@H](C(C)O)NC(=O)CSC[C@@H](C(=O)N[C@@H](CCN)C(=O)NCCCCCCCCCCC(=O)O)NC(=O)[C@H](CCCN)NC(=O)[C@H](C(C)O)NC(=O)[C@H](CC2CCCCC2)NC(=O)[C@H](CCN)NC1=O` (stereo partly drawn) [Compound 3675] ({CH2CO}-[Thr(3ξ)]Y(Carboxymethyl)DWV[Bip]V[Orn][dL][Dab][Cha][Thr(3ξ)][Orn]C[Dab][Aun]-OH; thioether N-14), for which the IC50 amounted to 19.3 nM.
For the compound `Cc1cccc(C[C@@H]2NC(=O)[C@H](CC(=O)O)NC(=O)[C@H](Cc3ccc(OCC(=O)O)cc3)NC(=O)[C@H](CCN)NC(=O)CSC[C@@H](C(=O)N[C@@H](CCN)C(=O)NCCCCCCCCCCC(=O)O)NC(=O)[C@H](Cc3cnc[nH]3)NC(=O)[C@H](C(C)O)NC(=O)[C@H](CC3CCCCC3)NC(=O)[C@H](CCN)NC(=O)[C@@H](CC(C)C)NC(=O)[C@H](CCCN)NC(=O)[C@H](Cc3ccc(OCC(=O)O)cc3)NC(=O)[C@H](Cc3ccc(-c4ccccc4)cc3)NC(=O)[C@H](Cc3ccc(OCC(=O)O)cc3)NC2=O)c1` (stereo partly drawn) [Compound 3633] ({CH2CO}-[Dab]Y(Carboxymethyl)D[Phe(3-Me)]Y(Carboxymethyl)[Bip]Y(Carboxymethyl)[Orn][dL][Dab][Cha][Thr(3ξ)]HC[Dab][Aun]-OH; thioether N-14), the IC50 amounted to 8.6 nM.
Turning to `Cc1cccc(C[C@@H]2NC(=O)[C@H](CC(=O)O)NC(=O)[C@H](Cc3ccc(OCC(=O)O)cc3)NC(=O)[C@H](CCN)NC(=O)CSC[C@@H](C(=O)N[C@@H](CCN)C(=O)NCCCCCCCCCCC(=O)O)NC(=O)[C@H](CO)NC(=O)[C@H](C(C)(C)O)NC(=O)[C@H](CC3CCCCC3)NC(=O)[C@H](CCN)NC(=O)[C@@H](CC(C)C)NC(=O)[C@H](CCCN)NC(=O)[C@H](Cc3ccc(C(N)=O)cc3)NC(=O)[C@H](Cc3ccc(-c4ccccc4)cc3)NC(=O)[C@H](Cc3ccc(C(N)=O)cc3)NC2=O)c1` [Compound 3698] ({CH2CO}-[Dab]Y(Carboxymethyl)D[Phe(3-Me)][Phe(4-CONH2)][Bip][Phe(4-CONH2)][Orn][dL][Dab][Cha][Val(3-OH)]SC[Dab][Aun]-OH; thioether N-14), the IC50 was found to be 15.6 nM.
For `Cc1cccc(C[C@@H]2NC(=O)[C@H](CC(=O)O)NC(=O)[C@H](Cc3ccc(OCC(=O)O)cc3)NC(=O)[C@H]([C@H](C)N)NC(=O)CSC[C@@H](C(=O)N[C@@H](CCN)C(=O)NCCCCCCCCCCC(=O)O)NC(=O)[C@H](CO)NC(=O)[C@H](C(C)(C)O)NC(=O)[C@H](CC3CCCCC3)NC(=O)[C@H](CCN)NC(=O)[C@@H](CC(C)C)NC(=O)[C@H](CCCN)NC(=O)[C@H](Cc3ccc(OCC(=O)O)cc3)NC(=O)[C@H](Cc3ccc(-c4ccccc4)cc3)NC(=O)[C@H](Cc3ccc(OCC(=O)O)cc3)NC2=O)c1` [Compound 2237] ({CH2CO}-[Abu(3S-NH2)]Y(Carboxymethyl)D[Phe(3-Me)]Y(Carboxymethyl)[Bip]Y(Carboxymethyl)[Orn][dL][Dab][Cha][Val(3-OH)]SC[Dab][Aun]-OH; thioether N-14), the IC50 is 2.6 nM.
With `CC(C)C[C@H]1NC(=O)[C@H](CCCN)NC(=O)[C@H](Cc2ccc(O)cc2)NC(=O)[C@H](Cc2ccc(-c3ccccc3)cc2)NC(=O)[C@H](Cc2ccc(O)cc2)NC(=O)[C@H](Cc2c[nH]c3ccccc23)NC(=O)[C@H](CC(=O)O)NC(=O)[C@H](Cc2ccc(OCC(=O)O)cc2)NC(=O)[C@H](Cc2ccc(OCC(=O)O)cc2)NC(=O)CSC[C@@H](C(=O)NCCOCCOCC(=O)NCCCCCCCCCCC(=O)O)NC(=O)[C@H](CCCNC(=N)N)NC(=O)[C@H](Cc2ccc(O)cc2)NC(=O)[C@H](CC2CCCCC2)NC(=O)[C@H](CCN)NC1=O` [Compound 2516] ({CH2CO}-Y(Carboxymethyl)Y(Carboxymethyl)DWY[Bip]Y[Orn][dL][Dab][Cha]YRC[AEEA][Aun]-OH; thioether N-14), the concentration for half-maximal inhibition (IC50) turned out to be 126 nM.
With `Cc1cccc(C[C@@H]2NC(=O)[C@H](CC(=O)O)NC(=O)[C@H](Cc3ccc(OCC(=O)O)cc3)NC(=O)[C@H](CN)NC(=O)CSC[C@@H](C(=O)N[C@@H](C)C(=O)N[C@@H](CC(=O)NCCOCCOCC(=O)N[C@@H](CC(=O)O)C(=O)NCCOCCOCC(=O)NCCCCCCCCCCC(=O)O)C(=O)O)NC(=O)[C@H]([C@@H](C)O)NC(=O)[C@H](C(C)C)NC(=O)[C@H](CC3CCCCC3)NC(=O)[C@H](CCN)NC(=O)[C@@H](CC(C)C)NC(=O)[C@H](CCCN)NC(=O)[C@H](CCCNC(N)=O)NC(=O)[C@H](Cc3ccc(-c4ccccc4)cc3)NC(=O)[C@H](C(C)C)NC2=O)c1` [Compound 1019] ({CH2CO}-[Dap]Y(Carboxymethyl)D[Phe(3-Me)]V[Bip][Cit][Orn][dL][Dab][Cha]VTCA[βAsp][AEEA]D[AEEA][Aun]-OH; thioether N-14), the IC50 came out at 6.8 nM.
For the compound `Cc1cccc(C[C@@H]2NC(=O)[C@H](CC(=O)O)NC(=O)[C@H](Cc3ccc(OCC(=O)O)cc3)NC(=O)[C@H](CCN)NC(=O)CSC[C@@H](C(=O)N[C@@H](CCCN)C(=O)N[C@@H](CO)C(=O)NCCCCCCCCCCCC(=O)O)NC(=O)[C@H](CO)NC(=O)[C@H](C(C)(C)O)NC(=O)[C@H](CC3CCCCC3)NC(=O)[C@H](CCN)NC(=O)[C@@H](CC(C)C)NC(=O)[C@H](CCCN)NC(=O)[C@H](Cc3ccc(OCC(=O)O)cc3)NC(=O)[C@H](Cc3ccc(-c4ccccc4)cc3)NC(=O)[C@H](Cc3ccc(OCC(=O)O)cc3)NC2=O)c1` [Compound 3617] ({CH2CO}-[Dab]Y(Carboxymethyl)D[Phe(3-Me)]Y(Carboxymethyl)[Bip]Y(Carboxymethyl)[Orn][dL][Dab][Cha][Val(3-OH)]SC[Orn]S[12Ado]-OH; thioether N-14), the IC50 is 78.8 nM.
For the compound `Cc1cccc(C[C@@H]2NC(=O)[C@H](CC(=O)O)NC(=O)[C@H](Cc3ccc(C(=O)O)cc3)NC(=O)[C@H](Cc3ccncc3)NC(=O)CSC[C@@H](C(=O)N[C@@H](CCN)C(=O)NCCCCCCCCCCC(=O)O)NC(=O)[C@H]([C@@H](C)O)NC(=O)[C@H](C(C)C)NC(=O)[C@H](CC(C)C)NC(=O)[C@H](CCN)NC(=O)[C@@H](CC(C)C)NC(=O)[C@H](CCCN)NC(=O)[C@H](Cc3ccc(OCC(=O)O)cc3)NC(=O)[C@H](Cc3ccc(-c4ccccc4)cc3)NC(=O)[C@H](Cc3ccc(OCC(=O)O)cc3)NC2=O)c1` [Compound 2143] ({CH2CO}-[4Pal][Phe(4-COOH)]D[Phe(3-Me)]Y(Carboxymethyl)[Bip]Y(Carboxymethyl)[Orn][dL][Dab]LVTC[Dab][Aun]-OH; thioether N-14), the IC50 is 12.6 nM.
On to `Cc1cccc(C[C@@H]2NC(=O)[C@H](CC(=O)O)NC(=O)[C@H](Cc3ccc(OCC(=O)O)cc3)NC(=O)[C@H](CN)NC(=O)CSC[C@@H](C(=O)NC3(C(=O)NCCOCCOCC(=O)NCCCCCCCCCCC(=O)O)CC3)NC(=O)[C@H](CCCN)NC(=O)[C@H](C(C)C)NC(=O)[C@H](CC3CCCCC3)NC(=O)[C@H](CCN)NC(=O)[C@@H](CC(C)C)NC(=O)[C@H](CCCN)NC(=O)[C@H](Cc3ccc(O)cc3)NC(=O)[C@H](Cc3ccc(-c4ccccc4)cc3)NC(=O)[C@H](Cc3ccc(O)cc3)NC2=O)c1` [Compound 2077] ({CH2CO}-[Dap]Y(Carboxymethyl)D[Phe(3-Me)]Y[Bip]Y[Orn][dL][Dab][Cha]V[Orn]C[Ac3c][AEEA][Aun]-OH; thioether N-14), for which the concentration for half-maximal inhibition (IC50) worked out at 6.3 nM.
On to `CC(C)C[C@H]1NC(=O)[C@H](CCCN)NC(=O)[C@H](Cc2ccc(O)cc2)NC(=O)[C@H](Cc2ccc(-c3ccccc3)cc2)NC(=O)[C@H](C(C)C)NC(=O)[C@H](Cc2c[nH]c3ccccc23)NC(=O)[C@H](CC(=O)O)NC(=O)[C@H](Cc2ccc(OCC(=O)O)cc2)NC(=O)[C@H]([C@@H](C)O)NC(=O)CSC[C@@H](C(=O)N[C@@H](CCN)C(=O)NCCCCCCCCCCC(=O)O)NC(=O)[C@H]([C@@H](C)O)NC(=O)[C@H](C(C)C)NC(=O)[C@H](CC2CCCCC2)NC(=O)[C@H](CCN)NC1=O` [Compound 2727] ({CH2CO}-TY(Carboxymethyl)DWV[Bip]Y[Orn][dL][Dab][Cha]VTC[Dab][Aun]-OH; thioether N-14), for which the IC50 is 30.1 nM.
Next, `Cc1cccc(C[C@@H]2NC(=O)[C@H](CC(=O)O)NC(=O)[C@H](Cc3ccc(OCC(=O)O)cc3)NC(=O)[C@H](CCO)NC(=O)CSC[C@@H](C(=O)N[C@@H](CCN)C(=O)NCCCCCCCCCCC(=O)O)NC(=O)[C@H](CO)NC(=O)[C@H](C(C)(C)O)NC(=O)[C@H](CC3CCCCC3)NC(=O)[C@H](CCN)NC(=O)[C@@H](CC(C)C)NC(=O)[C@H](CCCN)NC(=O)[C@H](Cc3ccc(OCC(=O)O)cc3)NC(=O)[C@H](Cc3ccc(-c4ccccc4)cc3)NC(=O)[C@H](Cc3ccc(OCC(=O)O)cc3)NC2=O)c1` [Compound 2230] ({CH2CO}-[hSer]Y(Carboxymethyl)D[Phe(3-Me)]Y(Carboxymethyl)[Bip]Y(Carboxymethyl)[Orn][dL][Dab][Cha][Val(3-OH)]SC[Dab][Aun]-OH; thioether N-14): 2.2 nM.
